From ChEMBL document CHEMBL3397042, “Synthesis of a chondroitin sulfate disaccharide library and a GAG-binding protein interaction analysis” (Bioorg Med Chem Lett, 2015)

Molecular target: Fibroblast growth factor 2 (Homo sapiens, UniProt P09038)
Test: Binding affinity to basic fibroblast growth factor (unknown origin) using sugar chip immobilized compound by surface plasmon resonance method
Conditions: not given; call rule not given here

Sequence of Fibroblast growth factor 2 (P09038 143-288 limits assumed): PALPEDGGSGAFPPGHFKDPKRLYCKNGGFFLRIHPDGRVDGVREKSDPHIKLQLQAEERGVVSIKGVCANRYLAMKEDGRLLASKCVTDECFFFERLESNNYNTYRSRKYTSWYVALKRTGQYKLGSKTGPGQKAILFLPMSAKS

SMILES | Kd
CC(=O)N[C@H]1[C@@H](OC[C@@H](O)[C@@H](O)[C@H](O)[C@@H](O)CNc2cccc(NC(=O)CCCCC3CCSS3)c2)O[C@H](CO)[C@H](O)[C@@H]1O[C@@H]1O[C@H](C(=O)[O-])[C@@H](O)[C@H](O)[C@H]1O.[Na+] (stereo partly specified) | Not Active
CC(=O)N[C@H]1[C@@H](OC[C@@H](O)[C@@H](O)[C@H](O)[C@@H](O)CNc2cccc(NC(=O)CCCCC3CCSS3)c2)O[C@H](CO)[C@H](OS(=O)(=O)[O-])[C@@H]1O[C@@H]1O[C@H](C(=O)[O-])[C@@H](O)[C@H](O)[C@H]1O.[Na+].[Na+] (mixture of isomers) | Not Active

Same assay, conditions: read-out: Kd

SMILES | Kd [nM]
CC(=O)N[C@H]1[C@@H](OC[C@@H](O)[C@@H](O)[C@H](O)[C@@H](O)CNc2cccc(NC(=O)CCCCC3CCSS3)c2)O[C@H](COS(=O)(=O)O)[C@H](OS(=O)(=O)O)[C@@H]1O[C@@H]1O[C@H](C(=O)O)[C@@H](O)[C@H](O)[C@H]1O (stereo partly specified) | 16
CC(=O)N[C@H]1[C@@H](OC[C@@H](O)[C@@H](O)[C@H](O)[C@@H](O)CNc2cccc(NC(=O)CCCCC3CCSS3)c2)O[C@H](CO)[C@H](OS(=O)(=O)O)[C@@H]1O[C@@H]1O[C@H](C(=O)O)[C@@H](O)[C@H](OS(=O)(=O)O)[C@H]1O (stereo partly specified) | 41
CC(=O)N[C@H]1[C@@H](OC[C@@H](O)[C@@H](O)[C@H](O)[C@@H](O)CNc2cccc(NC(=O)CCCCC3CCSS3)c2)O[C@H](COS(=O)(=O)O)[C@H](O)[C@@H]1O[C@@H]1O[C@H](C(=O)O)[C@@H](O)[C@H](O)[C@H]1O (mixture of isomers) | 36
CC(=O)N[C@H]1[C@@H](OC[C@@H](O)[C@@H](O)[C@H](O)[C@@H](O)CNc2cccc(NC(=O)CCCCC3CCSS3)c2)O[C@H](CO)[C@H](O)[C@@H]1O[C@@H]1O[C@H](C(=O)O)[C@@H](O)[C@H](O)[C@H]1OS(=O)(=O)O (mixture of isomers) | 62
CC(=O)N[C@H]1[C@@H](OC[C@@H](O)[C@@H](O)[C@H](O)[C@@H](O)CNc2cccc(NC(=O)CCCCC3CCSS3)c2)O[C@H](CO)[C@H](O)[C@@H]1O[C@@H]1O[C@H](C(=O)O)[C@@H](O)[C@H](OS(=O)(=O)O)[C@H]1O (mixture of isomers) | 25
CC(=O)N[C@H]1[C@@H](OC[C@@H](O)[C@@H](O)[C@H](O)[C@@H](O)CNc2cccc(NC(=O)CCCCC3CCSS3)c2)O[C@H](CO)[C@H](OS(=O)(=O)O)[C@@H]1O[C@@H]1O[C@H](C(=O)O)[C@@H](O)[C@H](O)[C@H]1OS(=O)(=O)O (mixture of isomers) | 41
CC(=O)N[C@H]1[C@@H](OC[C@@H](O)[C@@H](O)[C@H](O)[C@@H](O)CNc2cccc(NC(=O)CCCCC3CCSS3)c2)O[C@H](COS(=O)(=O)O)[C@H](O)[C@@H]1O[C@@H]1O[C@H](C(=O)O)[C@@H](O)[C@H](O)[C@H]1OS(=O)(=O)O (mixture of isomers) | 23
CC(=O)N[C@H]1[C@@H](OC[C@@H](O)[C@@H](O)[C@H](O)[C@@H](O)CNc2cccc(NC(=O)CCCCC3CCSS3)c2)O[C@H](COS(=O)(=O)O)[C@H](O)[C@@H]1O[C@@H]1O[C@H](C(=O)O)[C@@H](O)[C@H](OS(=O)(=O)O)[C@H]1O (mixture of isomers) | 147
CC(=O)N[C@H]1[C@@H](OC[C@@H](O)[C@@H](O)[C@H](O)[C@@H](O)CNc2cccc(NC(=O)CCCCC3CCSS3)c2)O[C@H](CO)[C@H](O)[C@@H]1O[C@@H]1O[C@H](C(=O)O)[C@@H](O)[C@H](OS(=O)(=O)O)[C@H]1OS(=O)(=O)O (mixture of isomers) | 95
CC(=O)N[C@H]1[C@@H](OC[C@@H](O)[C@@H](O)[C@H](O)[C@@H](O)CNc2cccc(NC(=O)CCCCC3CCSS3)c2)O[C@H](COS(=O)(=O)O)[C@H](OS(=O)(=O)O)[C@@H]1O[C@@H]1O[C@H](C(=O)O)[C@@H](O)[C@H](O)[C@H]1OS(=O)(=O)O (mixture of isomers) | 21
CC(=O)N[C@H]1[C@@H](OC[C@@H](O)[C@@H](O)[C@H](O)[C@@H](O)CNc2cccc(NC(=O)CCCCC3CCSS3)c2)O[C@H](COS(=O)(=O)O)[C@H](OS(=O)(=O)O)[C@@H]1O[C@@H]1O[C@H](C(=O)O)[C@@H](O)[C@H](OS(=O)(=O)O)[C@H]1O (mixture of isomers) | 60
CC(=O)N[C@H]1[C@@H](OC[C@@H](O)[C@@H](O)[C@H](O)[C@@H](O)CNc2cccc(NC(=O)CCCCC3CCSS3)c2)O[C@H](CO)[C@H](OS(=O)(=O)O)[C@@H]1O[C@@H]1O[C@H](C(=O)O)[C@@H](O)[C@H](OS(=O)(=O)O)[C@H]1OS(=O)(=O)O (mixture of isomers) | 52
CC(=O)N[C@H]1[C@@H](OC[C@@H](O)[C@@H](O)[C@H](O)[C@@H](O)CNc2cccc(NC(=O)CCCCC3CCSS3)c2)O[C@H](COS(=O)(=O)O)[C@H](O)[C@@H]1O[C@@H]1O[C@H](C(=O)O)[C@@H](O)[C@H](OS(=O)(=O)O)[C@H]1OS(=O)(=O)O (mixture of isomers) | 99
CC(=O)N[C@H]1[C@@H](OC[C@@H](O)[C@@H](O)[C@H](O)[C@@H](O)CNc2cccc(NC(=O)CCCCC3CCSS3)c2)O[C@H](COS(=O)(=O)O)[C@H](OS(=O)(=O)O)[C@@H]1O[C@@H]1O[C@H](C(=O)O)[C@@H](O)[C@H](OS(=O)(=O)O)[C@H]1OS(=O)(=O)O (mixture of isomers) | 4.9
